Columns and labels:
[1] = test system: intact (INT) and ovariectomized (OVX) female rats; experiment: EM-652.HCl and DHEA, energy balance and lipid-lipoprotein metabolism, high sucrose-high fat diet (Example 9); format: in vivo; conditions: 20 days, EM-652.HCl 0.5 mg/rat per os, DHEA 20 mg/rat topical
Method: The objective of this study was to determine the effects of EM-652.HCl and DHEA, administered alone or in combination, on energy balance and lipid-lipoprotein metabolism in rats. The effect of treatments was evaluated on many parameters following a 20-day treatment with EM-652.HCl (0.5 mg/rat, ˜2.5 mg/kg, per os) and DHEA (20 mg/rat, ˜100 mg/kg, topical application), administered alone or in combination, to intact (INT) and ovariectomized (OVX) female rats receiving a high sucrose-high fat diet. For comparison, one intact and ovariectomized control group received the enriched diet while other control animals (intact and OVX) received the commercial rodent diet.
d) Diet: • During the acclimation period, rats received a commercial rodent diet (Purina, #5075) and tap water ad libitum. During study period, groups 1 & 2 continued to receive the commercial diet while groups 3 to 10 received a high sucrose-high fat diet composed of (g/100 g): Sucrose, 45; Corn oil, 10; Lard, 10; Casein, 22.5; dl-Methionine, 0.3; Vitamin mix, 1.2; AIN-76 mineral mix, 5.5; Fiber, 5.5.44
80 rats were assigned to 10 groups of 8 rats for conduct of the study outlined below.
On day 0 of the study, rats from the appropriate groups were ovariectomized (by bilateral flank incision) under Isoflurane anesthesia. Intact rats were sham-operated.
Administration of the tested compounds or vehicle started the day following the ovariectomy (Day 1). […] Rats from control groups received the vehicle alone (per os and topically). Rats were killed on day 21 of the study approximately 24 hours after the last dosing.
Rats were weighed on day 0 (surgery), every 2 days during the study period and on the day of necropsy. Body weights were recorded with a precision of 1.0 g.
On day 21 of the study, overnight fasted rats were killed approximately 24 hours after the last dosing. They were anesthesized with ketamine-xylazine and blood drawn by cardiac punction.
Blood lipids (Total cholesterol and Triglycerides) were measured on frozen serum samples using the Boehringer Mannheim Diagnostic Hitachi 911 Analyzer (Boehringer Mannheim Diagnostic Laboratory Systems). Circulating hormones and substrates (Insulin, leptin, glucose) were measured on serum samples as follow: • Insulin: Linco RIA kit • Glucose: Beckmann automatic glucose analyser • Leptin: Linco RIA kit Organs and Tissues Collected
The following tissues were collected and weighed for all animals: • Muscle (soleus and VLM), fat (retroperitoneal and inguinal), and brown adipose tissue.
A piece of liver was frozen for later determination of TG and CHOL content (Folchis method) while the other tissues were processed for determination of LPL activity.

intact female rats = experiment: 6-month treatment, fat accumulation in intact female rats receiving or not LHRH-A (Example 5); format: in vivo, Rattus norvegicus; design: FAT (%): dose or concentration left out as unconfirmed; conditions: 6 months; for FAT (%): DEXA, once daily; for increment of the percentage of body fat under LHRH-A: concomitant with LHRH-A
Method: The objective of this study is to determine the effect on fat of treatment with EM-652.HCl and dehydroepiandrosterone (DHEA) in intact female rats receiving or not a luteinizing hormone releasing hormone agonist (LHRH-A, LHRH ethylamide diacetate). For this purpose, intact female rats, treated or not with LHRH-A (2 μg/rat), received daily administration of EM-652.HCl (2.5 mg/kg) and DHEA (100 mg/kg), alone or in combination, for 6 months. EM-652.HCl was administered orally, DHEA was applied topically while LHRH-A was injected subcutaneously. All treatments were administered once daily.
One hundred twenty rats were separated into 8 groups of 15 animals for conduct of the study outlined below:
The LHRH-A is available in solution at a concentration of 1.0 mg/ml. We diluted this concentrated solution (in order to obtain a final concentration of 0.004 mg/ml) by using the following vehicle: 0.3% Sodium Chloride and 0.25% Sodium Phosphate monobasic, monohydrate in water. The sodium hydroxide (aqueous) was used to adjust the pH between 5.6-6.2.
Dosing suspensions/solutions were prepared every two weeks according to the most recent body weight (group mean) except for the LHRH-A solution. For EM-652.HCl administered orally, the vehicle (0.4% methylcellulose) was added to the tested compound, previously weighed into a glass bottle, at least 48 hours prior to the first dosing day. To ensure the homogeneity of dosing suspension, it was stirred at least 48 hours at 2 to 8 C. Dosing suspension was kept at 2 to 8 C. For DHEA solution applied topically, the ethanol was added to DHEA and the mix were agitated until dissolution of DHEA. Then, the polypropylene glycol was added and the solution agitated until homogeneity. Dosing solution was kept at 2 to 8 C. For LHRH-A solution injected subcutaneously, a dilution of the concentrated solution using the appropriate vehicle was prepared every month. Dosing solution was kept at 2 to 8 C.
The administration of tested compounds or vehicle was given from on Study Day 1 of the protocol. The tested compounds were given as suspension in 0.4% methylcellulose by oral gavage (0.5 ml/gavage/rat) once daily or were applied topically in 50% ethanol-50% propylene glycol (0.5 ml/application/rat) once daily. Rats from groups 5 to 8 received also the LHRH-A once daily by subcutaneous injection (0.5 ml/injection/rat). Rats not receiving a tested compound orally and/or topically received the appropriate vehicle alone.
Body composition was measured on whole skeleton of animal under Isoflurane-induced anesthesia using dual energy x-ray absorptiometry (DEXA; QDR 4500A, Hologic) during the acclimation period and after 6 months of treatment.

| SMILES | Brown adipose tissue Lipoprotein lipase activity ([1]; OVX rats) [μU/g protein] | Brown adipose tissue weight ([1]; OVX rats) [g] | Plasma glucose ([1]; OVX rats) [mmol/L] | Plasma insulin ([1]; OVX rats) [nmol/L] | Plasma leptin ([1]; OVX rats) [ng/mL] | Plasma total cholesterol ([1]; OVX rats) [mmol/L] | Plasma triglycerides ([1]; OVX rats) [mmol/L] | Soleus muscle Lipoprotein lipase activity ([1]; OVX rats) [μU/g protein] | Soleus muscle weight ([1]; OVX rats) [g] | Total weight ([1]; OVX rats) [g] | VastusLateralis muscle Lipoprotein lipase activity ([1]; OVX rats) [μU/g protein] | VastusLateralis muscle weight ([1]; OVX rats) [g] | White adipose tissue inguinal Lipoprotein lipase activity ([1]; OVX rats) [μU/g protein] | White adipose tissue inguinal weight ([1]; OVX rats) [g] | White adipose tissue retroperitoneal Lipoprotein lipase activity ([1]; OVX rats) [μU/g protein] | White adipose tissue retroperitoneal weight ([1]; OVX rats) [g] | liver total cholesterol ([1]; OVX rats) [mmol/L] | liver triglycerides ([1]; OVX rats) [mmol/L] | Brown adipose tissue Lipoprotein lipase activity ([1]; sham rats) [μU/g protein] | Brown adipose tissue weight ([1]; sham rats) [g] | other results |
| --- | --- | --- | --- | --- | --- | --- | --- | --- | --- | --- | --- | --- | --- | --- | --- | --- | --- | --- | --- | --- | --- |
| C[C@]12CC[C@H](O)CC1=CC[C@@H]1[C@@H]2CC[C@]2(C)C(=O)CC[C@@H]12 [DHEA, dehydroepiandrosterone] | 1069 ± 96 | 0.342 ± 0.049 | 8.64 ± 0.24 | 0.052 ± 0.009 | 2.757 ± 0.631 | 1.57 ± 0.12 | 0.62 ± 0.08 | 45.9 ± 4.7 | 0.103 ± 0.005 | 274 ± 9 | 13.1 ± 5.4 | 0.920 ± 0.049 | 583 ± 134 | 0.885 ± 0.156 | 1905 ± 112 | 1.699 ± 0.151 | 0.079 ± 0.005 | 0.165 ± 0.047 | 982 ± 72 | 0.373 ± 0.036 | Plasma glucose ([1]; sham rats): 8.05 ± 0.51 mmol/L; Plasma insulin ([1]; sham rats): 0.048 ± 0.012 nmol/L; Plasma leptin ([1]; sham rats): 1.977 ± 0.255 ng/mL; Plasma total cholesterol ([1]; sham rats): 1.59 ± 0.17 mmol/L; Plasma triglycerides ([1]; sham rats): 0.61 ± 0.11 mmol/L; Soleus muscle Lipoprotein lipase activity ([1]; sham rats): 53.6 ± 7.5 μU/g protein; Soleus muscle weight ([1]; sham rats): 0.105 ± 0.004 g; Total weight ([1]; sham rats): 252 ± 5 g; VastusLateralis muscle Lipoprotein lipase activity ([1]; sham rats): 11.5 ± 2.0 μU/g protein; VastusLateralis muscle weight ([1]; sham rats): 0.893 ± 0.043 g; White adipose tissue inguinal Lipoprotein lipase activity ([1]; sham rats): 194 ± 45 μU/g protein; White adipose tissue inguinal weight ([1]; sham rats): 0.659 ± 0.075 g; White adipose tissue retroperitoneal Lipoprotein lipase activity ([1]; sham rats): 1177 ± 188 μU/g protein; White adipose tissue retroperitoneal weight ([1]; sham rats): 1.067 ± 0.149 g; liver total cholesterol ([1]; sham rats): 0.068 ± 0.003 mmol/L; liver triglycerides ([1]; sham rats): 0.038 ± 0.007 mmol/L; FAT (%) (intact female rats): 20.2 ± 2.3%; increment of the percentage of body fat under LHRH-A (intact female rats): 19% |
| CC1=C(c2ccc(O)cc2)[C@H](c2ccc(OCCN3CCCCC3)cc2)Oc2cc(O)ccc21.Cl [EM-652.HCl, (S)-(+)-7-hydroxy-3-(4′-hydroxyphenyl)-4-methyl-2-(4″-(2′″-piperidino-ethoxy)phenyl)-2H-1-benxopyran hydrochloride] | 678 ± 65 | 0.408 ± 0.025 | 9.06 ± 0.30 | 0.089 ± 0.013 | 1.989 ± 0.326 | 1.15 ± 0.11 | 0.97 ± 0.16 | 39.1 ± 5.0 | 0.104 ± 0.004 | 268 ± 5 | 10.8 ± 3.2 | 0.944 ± 0.030 | 310 ± 63 | 0.709 ± 0.085 | 1612 ± 186 | 1.370 ± 0.211 | 0.092 ± 0.006 | 0.348 ± 0.078 | 1196 ± 83 | 0.306 ± 0.044 | Plasma glucose ([1]; sham rats): 9.03 ± 0.49 mmol/L; Plasma insulin ([1]; sham rats): 0.057 ± 0.004 nmol/L; Plasma leptin ([1]; sham rats): 2.019 ± 0.402 ng/mL; Plasma total cholesterol ([1]; sham rats): 1.15 ± 0.06 mmol/L; Plasma triglycerides ([1]; sham rats): 0.60 ± 0.12 mmol/L; Soleus muscle Lipoprotein lipase activity ([1]; sham rats): 53.9 ± 3.3 μU/g protein; Soleus muscle weight ([1]; sham rats): 0.098 ± 0.005 g; Total weight ([1]; sham rats): 238 ± 5 g; VastusLateralis muscle Lipoprotein lipase activity ([1]; sham rats): 16.2 ± 3.1 μU/g protein; VastusLateralis muscle weight ([1]; sham rats): 0.965 ± 0.034 g; White adipose tissue inguinal Lipoprotein lipase activity ([1]; sham rats): 160 ± 23 μU/g protein; White adipose tissue inguinal weight ([1]; sham rats): 0.435 ± 0.043 g; White adipose tissue retroperitoneal Lipoprotein lipase activity ([1]; sham rats): 1277 ± 56 μU/g protein; White adipose tissue retroperitoneal weight ([1]; sham rats): 1.058 ± 0.162 g; liver total cholesterol ([1]; sham rats): 0.096 ± 0.011 mmol/L; liver triglycerides ([1]; sham rats): 0.360 ± 0.102 mmol/L; FAT (%) (intact female rats): 19.1 ± 1.4%; increment of the percentage of body fat under LHRH-A (intact female rats): 35% |

— US8609695B2, “Methods of treating and/or suppressing insulin resistance” (Endorecherche, Inc., priority 1999, dated 2013)
